Reference: patent publication US20260226493A1, “HERBICIDE RESISTANT PLANTS” (SYNGENTA CROP PROTECTION AG, priority 2023, published 2026)

Assays:
Assay in all cases: BIO3-BIO1 mutant enzyme activity in the presence of herbicide, percentage inhibition (fluorometric DAPA assay)
Type in all cases: biochemical
Settings in all cases: read-out: percentage inhibition
[1] = target: T1, Arabidopsis thaliana BIO3-BIO1 (BioDA) mutants (Arabidopsis thaliana, UniProt B0F481, F348E)
T1 construct: with the predicted N-terminal mitochondrial transit peptide removed; 6xHis-tag (N); thrombin cleavage site (N); made in house; host or cells: E. coli BL21 (DE3) bioA
T1 sequence (B0F481 23-833 F348E): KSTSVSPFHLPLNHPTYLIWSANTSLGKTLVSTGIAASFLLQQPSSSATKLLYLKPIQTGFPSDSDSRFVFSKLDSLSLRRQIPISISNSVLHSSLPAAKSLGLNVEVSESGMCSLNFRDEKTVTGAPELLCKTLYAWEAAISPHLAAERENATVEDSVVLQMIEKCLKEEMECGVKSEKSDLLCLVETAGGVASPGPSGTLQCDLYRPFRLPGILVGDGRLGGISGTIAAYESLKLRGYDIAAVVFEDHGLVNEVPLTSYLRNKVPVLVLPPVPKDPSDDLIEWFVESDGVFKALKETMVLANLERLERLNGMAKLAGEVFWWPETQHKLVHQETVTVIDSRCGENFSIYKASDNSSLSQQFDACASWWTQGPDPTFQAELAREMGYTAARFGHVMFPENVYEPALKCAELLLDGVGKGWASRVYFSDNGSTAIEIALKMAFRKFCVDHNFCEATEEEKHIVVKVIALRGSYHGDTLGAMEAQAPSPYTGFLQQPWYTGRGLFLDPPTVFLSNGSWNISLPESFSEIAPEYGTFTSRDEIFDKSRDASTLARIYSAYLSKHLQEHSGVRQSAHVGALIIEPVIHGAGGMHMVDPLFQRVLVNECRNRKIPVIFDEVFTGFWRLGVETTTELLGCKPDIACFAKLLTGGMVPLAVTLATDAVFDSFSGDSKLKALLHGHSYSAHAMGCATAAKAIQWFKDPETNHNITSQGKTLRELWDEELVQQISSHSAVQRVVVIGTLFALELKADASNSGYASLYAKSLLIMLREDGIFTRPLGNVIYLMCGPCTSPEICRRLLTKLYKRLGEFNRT
Procedure, shortened: (§1)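 His-tagged Arabidopsis BIO3-BIO1 mutants, expressed in E. coli and purified by IMAC and SEC, were preincubated at 50 nM with herbicide for 10 min at 20 °C in EPPS pH 8.6 with pyridoxal phosphate. Reaction with 100 μM spermidine and 20 μM KAPA ran 75 min at 20 °C; DAPA was derivatised with o-phthalaldehyde and read at ex 410/em 470 nm. […].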

[2] = target: T2, Arabidopsis thaliana BIO3-BIO1 (BioDA) mutants (Arabidopsis thaliana, UniProt B0F481, A609Y)
T2 construct: with the predicted N-terminal mitochondrial transit peptide removed; 6xHis-tag (N); thrombin cleavage site (N); made in house; host or cells: E. coli BL21 (DE3) bioA
T2 sequence (B0F481 23-833 A609Y): as the sequence (B0F481 23-833 F348E) above, with E326F, A587Y counted along it
Procedure, shortened: as §1

[3] = target: T3, Arabidopsis thaliana BIO3-BIO1 (BioDA) mutants (Arabidopsis thaliana, UniProt B0F481, F348S)
T3 construct: with the predicted N-terminal mitochondrial transit peptide removed; 6xHis-tag (N); thrombin cleavage site (N); made in house; host or cells: E. coli BL21 (DE3) bioA
T3 sequence (B0F481 23-833 F348S): as the sequence (B0F481 23-833 F348E) above, with E326S counted along it
Procedure, shortened: as §1

[4] = target: T4, Arabidopsis thaliana BIO3-BIO1 (BioDA) mutants (Arabidopsis thaliana, UniProt B0F481, L786S)
T4 construct: with the predicted N-terminal mitochondrial transit peptide removed; 6xHis-tag (N); thrombin cleavage site (N); made in house; host or cells: E. coli BL21 (DE3) bioA
T4 sequence (B0F481 23-833 L786S): as the sequence (B0F481 23-833 F348E) above, with E326F, L764S counted along it
Procedure, shortened: as §1

[5] = target: T5, Arabidopsis thaliana BIO3-BIO1 (BioDA) mutants (Arabidopsis thaliana, UniProt B0F481, Y511E)
T5 construct: with the predicted N-terminal mitochondrial transit peptide removed; 6xHis-tag (N); thrombin cleavage site (N); made in house; host or cells: E. coli BL21 (DE3) bioA
T5 sequence (B0F481 23-833 Y511E): as the sequence (B0F481 23-833 F348E) above, with E326F, Y489E counted along it
Procedure, shortened: as §1

[6] = target: T6, Arabidopsis thaliana BIO3-BIO1 (BioDA) mutants (Arabidopsis thaliana, UniProt B0F481, Y511I)
T6 construct: with the predicted N-terminal mitochondrial transit peptide removed; 6xHis-tag (N); thrombin cleavage site (N); made in house; host or cells: E. coli BL21 (DE3) bioA
T6 sequence (B0F481 23-833 Y511I): as the sequence (B0F481 23-833 F348E) above, with E326F, Y489I counted along it
Procedure, shortened: as §1

[7] = target: T7, Arabidopsis thaliana BIO3-BIO1 (BioDA) mutants (Arabidopsis thaliana, UniProt B0F481, S509C)
T7 construct: with the predicted N-terminal mitochondrial transit peptide removed; 6xHis-tag (N); thrombin cleavage site (N); made in house; host or cells: E. coli BL21 (DE3) bioA
T7 sequence (B0F481 23-833 S509C): as the sequence (B0F481 23-833 F348E) above, with E326F, S487C counted along it
Procedure, shortened: as §1

[8] = target: T8, Arabidopsis thaliana BIO3-BIO1 (BioDA) mutants (Arabidopsis thaliana, UniProt B0F481, W392G)
T8 construct: with the predicted N-terminal mitochondrial transit peptide removed; 6xHis-tag (N); thrombin cleavage site (N); made in house; host or cells: E. coli BL21 (DE3) bioA
T8 sequence (B0F481 23-833 W392G): as the sequence (B0F481 23-833 F348E) above, with E326F, W370G counted along it
Procedure, shortened: as §1

[9] = target: T9, Arabidopsis thaliana BIO3-BIO1 (BioDA) mutants (Arabidopsis thaliana, UniProt B0F481, S509R)
T9 construct: with the predicted N-terminal mitochondrial transit peptide removed; 6xHis-tag (N); thrombin cleavage site (N); made in house; host or cells: E. coli BL21 (DE3) bioA
T9 sequence (B0F481 23-833 S509R): as the sequence (B0F481 23-833 F348E) above, with E326F, S487R counted along it
Procedure, shortened: as §1

[10] = target: T10, Arabidopsis thaliana BIO3-BIO1 (BioDA) mutants (Arabidopsis thaliana, UniProt B0F481, T512Q)
T10 construct: with the predicted N-terminal mitochondrial transit peptide removed; 6xHis-tag (N); thrombin cleavage site (N); made in house; host or cells: E. coli BL21 (DE3) bioA
T10 sequence (B0F481 23-833 T512Q): as the sequence (B0F481 23-833 F348E) above, with E326F, T490Q counted along it
Procedure, shortened: as §1

[11] = target: T11, Arabidopsis thaliana BIO3-BIO1 (BioDA) mutants (Arabidopsis thaliana, UniProt B0F481, Q517T)
T11 construct: with the predicted N-terminal mitochondrial transit peptide removed; 6xHis-tag (N); thrombin cleavage site (N); made in house; host or cells: E. coli BL21 (DE3) bioA
T11 sequence (B0F481 23-833 Q517T): as the sequence (B0F481 23-833 F348E) above, with E326F, Q495T counted along it
Procedure, shortened: as §1

[12] = target: T12, Arabidopsis thaliana BIO3-BIO1 (BioDA) mutants (Arabidopsis thaliana, UniProt B0F481, T512N)
T12 construct: with the predicted N-terminal mitochondrial transit peptide removed; 6xHis-tag (N); thrombin cleavage site (N); made in house; host or cells: E. coli BL21 (DE3) bioA
T12 sequence (B0F481 23-833 T512N): as the sequence (B0F481 23-833 F348E) above, with E326F, T490N counted along it
Procedure, shortened: as §1

| Compound | inhibition at 0.2 µM [5] | inhibition at 1 µM [5] | inhibition at 5 µM [5] | inhibition at 0.2 µM [6] | inhibition at 1 µM [6] | inhibition at 5 µM [6] | inhibition at 0.2 µM [1] | inhibition at 1 µM [1] | inhibition at 5 µM [1] | inhibition at 0.2 µM [7] | inhibition at 1 µM [7] | inhibition at 5 µM [7] | inhibition at 1 µM [2] | inhibition at 1 µM [3] | inhibition at 1 µM [8] | inhibition at 1 µM [9] | inhibition at 1 µM [10] | inhibition at 1 µM [11] | inhibition at 1 µM [12] | inhibition at 1 µM [4] | other results |
| --- | --- | --- | --- | --- | --- | --- | --- | --- | --- | --- | --- | --- | --- | --- | --- | --- | --- | --- | --- | --- | --- |
| CCn1c(Cn2ccc(C(F)(F)F)n2)cc(=O)c(C(=O)O)c1-c1ccc(Cl)c(Cl)c1 [Compound L, 2-(3,4-dichlorophenyl)-1-ethyl-4-oxo-6-[[3-(trifluoromethyl)pyrazol-1-yl]methyl]pyridine-3-carboxylic acid] |  |  |  |  |  |  |  |  |  |  |  |  |  |  |  |  |  |  |  |  | inhibition at 0.01 µM [1]: 0%; inhibition at 0.075 µM [1]: 0%; inhibition at 0.5 µM [1]: 32%; inhibition at 0.01 µM [2]: 0%; inhibition at 0.075 µM [2]: 0%; inhibition at 0.5 µM [2]: 0%; inhibition at 0.01 µM [3]: 7%; inhibition at 0.075 µM [3]: 3%; inhibition at 0.5 µM [3]: 32%; inhibition at 0.01 µM [4]: 11%; inhibition at 0.075 µM [4]: 31%; inhibition at 0.5 µM [4]: 93% |
| CCn1c(C)c(-c2ccc(F)cc2F)c(=O)c(C(=O)O)c1-c1ccc(Cl)c(Cl)c1 [Compound C, 2-(3,4-dichlorophenyl)-5-(2,4-difluorophenyl)-1-ethyl-6-methyl-4-oxo-pyridine-3-carboxylic acid] | 27% | 74% | 96% | 36% | 93% | 100% | 19% | 57% | 86% | 30% | 65% | 88% | 0% | 7% | 20% | 87% | 96% | 47% | 74% | 84% | inhibition at 0.2 µM [2]: 0%; inhibition at 5 µM [2]: 43%; inhibition at 0.2 µM [3]: 9%; inhibition at 5 µM [3]: 22%; inhibition at 0.2 µM [8]: 0%; inhibition at 5 µM [8]: 69%; inhibition at 0.2 µM [9]: 42%; inhibition at 5 µM [9]: 98%; inhibition at 0.2 µM [10]: 53%; inhibition at 5 µM [10]: 100%; inhibition at 0.2 µM [11]: 14%; inhibition at 5 µM [11]: 73%; inhibition at 0.2 µM [12]: 29%; inhibition at 5 µM [12]: 93%; inhibition at 0.2 µM [4]: 26%; inhibition at 5 µM [4]: 98% |
| CCOC(=O)c1nn(-c2ccc3c(c2)OC(F)(F)C(F)(F)O3)c2cccc(C(C)=O)c2c1=O [Compound A, ethyl 5-acetyl-4-oxo-1-(2,2,3,3-tetrafluoro-1,4-benzodioxin-6-yl)cinnoline-3-carboxylate] |  | 0% |  |  | 17% |  |  | 0% |  |  | 0% |  | 0% | 3% | 56% | 15% | 49% | 46% | 21% | 80% |  |
| CCn1c(-c2ccc(Cl)c(Cl)c2)c(C(=O)O)c(=O)c2cc(F)ccc21 [Compound M, 2-(3,4-dichlorophenyl)-1-ethyl-6-fluoro-4-oxo-quinoline-3-carboxylic acid] | 29% | 74% | 95% | 21% | 81% | 96% | 27% | 25% | 66% | 21% | 53% | 78% | 4% | 4% | 7% | 82% | 91% | 39% | 74% | 81% | inhibition at 0.2 µM [2]: 0%; inhibition at 5 µM [2]: 45%; inhibition at 0.2 µM [3]: 6%; inhibition at 5 µM [3]: 25%; inhibition at 0.2 µM [8]: 0%; inhibition at 5 µM [8]: 12%; inhibition at 0.2 µM [9]: 48%; inhibition at 5 µM [9]: 96%; inhibition at 0.2 µM [10]: 49%; inhibition at 5 µM [10]: 99%; inhibition at 0.2 µM [11]: 14%; inhibition at 5 µM [11]: 71%; inhibition at 0.2 µM [12]: 27%; inhibition at 5 µM [12]: 93%; inhibition at 0.2 µM [4]: 33%; inhibition at 5 µM [4]: 97% |
